Reference: paper PMC11748363, “Antimicrobial and Antiproliferative Properties of 2‐Phenyl‐N‐(Pyridin‐2‐yl)acetamides” (Chemical Biology & Drug Design, 2025)
Values after ≈ are worked out from the molar mass of the structure shown. Read-outs that look alike come from different tables or passages of the source.

Key:
[1] = tested on: Mycolicibacterium aurum DSM 43999; assay: Antimycobacterial microdilution broth MIC (resazurin), M. aurum; assay type: cell-based; conditions: DSM43999, read-out: MIC M. aurum
[2] = tested on: Enterococcus faecalis CCM 4224, ATCC 29212; assay: Antibacterial microdilution broth MIC, EF; assay type: cell-based
[3] = tested on: HepG2 cell line; assay: Cytotoxicity CellTiter 96, HepG2; assay type: cell-based, human; conditions: Homo sapiens, HepG2, 24 h, 24 h incubation; ^c compound precipitated in the testing medium; ^d over the limit of tested concentrations
Protocol: The cytotoxicity of final compounds was determined in human hepatocellular carcinoma cell line HepG2.
Cytotoxicity determination
Human hepatocellular liver carcinoma cell line HepG2 purchased from Health Protection Agency Culture Collections (ECACC, Salisbury, UK) was cultured in MEM (Minimum Essentials Eagle Medium, Sigma–Aldrich) supplemented with 10% fetal bovine serum (PAA Laboratories, Pasching, Austria), 1% L-glutamine solution (Sigma–Aldrich) and non-essential amino acid solution (Sigma–Aldrich) in a humidified atmosphere containing 5% CO2 at 37 °C. For subculturing, the cells were harvested after trypsin/EDTA (Sigma–Aldrich) treatment at 37 °C. To evaluate cytotoxicity, the cells treated with the tested substances were used as experimental groups whereas untreated HepG2 cells served as controls. The cells were seeded in density 10,000 cells per well in a 96 well plate. The next day the cells were treated with each of the tested substances dissolved in DMSO. The tested substances were
in triplicates according to their solubility. Simultaneously, the controls representing 100% cell viability, 0% cell viability (the cells treated with 10% DMSO), no cell control and vehiculum controls were also
the reagent from the kit CellTiter 96 AQueous One Solution Cell Proliferation Assay (CellTiter 96; PROMEGA, Fitchburg, USA) was added. After 2h incubation at 37 °C, absorbance of samples was recorded at 490 nm (TECAN, Infinita M200, Austria). A standard toxicological parameter IC50 was calculated by nonlinear regression from a semilogarithmic plot of incubation concentration versus percentage of absorbance relative to untre ated controls using GraphPad Prism 8 software.

[4] = tested on: Trichophyton interdigitale CCM 8377, ATCC 9533; assay: Antifungal microdilution broth MIC, TI; conditions: for MIC: Trichophyton interdigitale
[5] = tested on: Candida krusei CCM 8271, ATCC 6258; assay: Antifungal microdilution broth MIC, CK; conditions: Pichia kudriavzevii
[6] = tested on: Escherichia coli CCM 3954, ATCC 25922; assay: Antibacterial microdilution broth MIC, EC; assay type: cell-based
[7] = tested on: Staphylococcus aureus CCM 4223, ATCC 29213; assay: Antibacterial microdilution broth MIC, SA; assay type: cell-based; conditions: for MIC: Staphylococcus aureus
[8] = tested on: Candida albicans CCM 8320, ATCC 24433; assay: Antifungal microdilution broth MIC, CA
[9] = tested on: Pseudomonas aeruginosa CCM 3955, ATCC 27853; assay: Antibacterial microdilution broth MIC, PA; assay type: cell-based
[10] = tested on: Klebsiella pneumoniae CCM 4415, ATCC 10031; assay: Antibacterial microdilution broth MIC, KP
[11] = tested on: M. kansasii CNCTC My 235/80; assay: Microplate Alamar Blue Assay MIC, M. kansasii; assay type: cell-based; conditions: for MIC: Mycobacterium kansasii
[12] = tested on: Aspergillus fumigatus ATCC 204305; assay: Antifungal microdilution broth MIC, AF
[13] = tested on: Candida tropicalis CCM 8264, ATCC 750; assay: Antifungal microdilution broth MIC, CT
[14] = tested on: panel of bacteria; assay: Antibacterial screening, whole panel; assay type: cell-based; conditions: whole bacterial panel
[15] = tested on: Staphylococcus aureus subsp. aureus CCM 4750, ATCC 43300 (MRSA); assay: Antibacterial microdilution broth MIC, MRSA; assay type: cell-based; conditions: for MIC: Staphylococcus aureus
[16] = tested on: M. avium ssp. avium CNCTC My 80/72; assay: Microplate Alamar Blue Assay MIC, M. avium; assay type: cell-based; conditions: for MIC: Mycobacterium avium
[17] = tested on: panel of fungi; assay: Antifungal screening, whole panel; assay type: cell-based; conditions: whole fungal panel
Protocol: The antifungal activity was evaluated by
spectrophotometric visual detection** spectrophotometric detection**
Candida tropicalis 1 1 2 >16
Aspergillus fumigatus 4 4 0.25 1
Aspergillus flavus CCM 4 4 2 >16
interdigitale CCM 1 1 1 >16
control. […] Measured on a […]

[18] = tested on: Mycolicibacterium smegmatis DSM 43465; assay: Antimycobacterial microdilution broth MIC (resazurin), M. smegmatis; assay type: cell-based; conditions: DSM43465, read-out: MIC M. smegmatis
[19] = tested on: Lichtheimia corymbifera CCM 8077; assay: Antifungal microdilution broth MIC, LC
[20] = tested on: Mycobacterium tuberculosis H37Ra; assay: Antimycobacterial microdilution broth MIC (resazurin), Mtb H37Ra; assay type: cell-based; conditions: for MIC: Mycobacterium tuberculosis, H37RA, read-out: MIC Mtb H37Ra; for SI (selectivity index): SI = HepG2 IC50 (μM)/MIC MtbH37Ra (μM), calculated for compounds with MIC ≤ 31.25 μg/mL
[21] = tested on: Acinetobacter baumannii DSM 30007, ATCC 19606; assay: Antibacterial microdilution broth MIC, ACI; assay type: cell-based
[22] = tested on: Aspergillus flavus CCM 8363; assay: Antifungal microdilution broth MIC, AFla
[23] = tested on: Mycobacterium tuberculosis H37Rv; assay: Microplate Alamar Blue Assay MIC, Mtb H37Rv; assay type: cell-based; conditions: Mycobacterium tuberculosis, H37RV
[24] = tested on: Candida parapsilosis CCM 8260, ATCC 22019; assay: Antifungal microdilution broth MIC, CP; conditions: Lodderomyces parapsilosis
[25] = tested on: Staphylococcus epidermidis CCM 4418, ATCC 12228; assay: Antibacterial microdilution broth MIC, SE; assay type: cell-based
[26] = ATCC204305, 24 h, read-out: MIC AF 24h
[27] = ATCC204305, 48 h, read-out: MIC AF 48h
[28] = CCM8077, 24 h, read-out: MIC LC 24h
[29] = CCM8077, 48 h, read-out: MIC LC 48h
[30] = CCM8363, 24 h, read-out: MIC AFla 24h
[31] = CCM8363, 48 h, read-out: MIC AFla 48h

SMILES: O=C(Cc1ccc(Cl)cc1)Nc1ccc(Cl)cn1 [Compound 20]
- MIC [1]: 500 µg/mL (≈ 1780 µM)
- MIC ([2]; 24 h, read-out: MIC EF 24h): > 500 µM
- MIC ([2]; 48 h, read-out: MIC EF 48h): > 500 µM
- IC50 [3]: 48.5 µM
- MIC ([4]; 72 h, read-out: MIC TI 72h): > 500 µM
- MIC ([4]; 120 h, read-out: MIC TI 120h): > 500 µM
- MIC ([5]; 24 h, read-out: MIC CK 24h): > 500 µM
- MIC ([5]; 48 h, read-out: MIC CK 48h): > 500 µM
- MIC ([6]; 24 h, read-out: MIC EC 24h): > 500 µM
- MIC ([6]; 48 h, read-out: MIC EC 48h): > 500 µM
- MIC ([7]; 24 h, read-out: MIC SA 24h): > 500 µM
- MIC ([7]; 48 h, read-out: MIC SA 48h): > 500 µM
- MIC ([8]; 24 h, read-out: MIC CA 24h): > 500 µM
- MIC ([8]; 48 h, read-out: MIC CA 48h): > 500 µM
- MIC ([9]; 24 h, read-out: MIC PA 24h): > 500 µM
- MIC ([9]; 48 h, read-out: MIC PA 48h): > 500 µM
- MIC KP 24h [10]: > 500 µM
- MIC KP 48h [10]: > 500 µM
- MIC [11]: > 100 µg/mL
- MIC [12, 26]: > 500 µM
- MIC [12, 27]: > 500 µM
- MIC ([13]; 24 h, read-out: MIC CT 24h): > 500 µM
- MIC ([13]; 48 h, read-out: MIC CT 48h): > 500 µM
- Antibacterial activity [14]: None
- MIC ([15]; 24 h, read-out: MIC MRSA 24h): > 500 µM
- MIC ([15]; 48 h, read-out: MIC MRSA 48h): > 500 µM
- MIC [16]: > 100 µg/mL
- Antifungal activity [17]: None
- MIC [18]: 500 µg/mL (≈ 1780 µM)
- MIC [19, 28]: > 500 µM
- MIC [19, 29]: > 500 µM
- MIC ([20]; Calculated from MIC (μg/mL)): 27.8 µM
- MIC [20]: 7.81 µg/mL
- SI (selectivity index) [20]: 1.7
- MIC ([21]; 24 h, read-out: MIC ACI 24h): > 500 µM
- MIC ([21]; 48 h, read-out: MIC ACI 48h): > 500 µM
- MIC [22, 30]: > 500 µM
- MIC [22, 31]: > 500 µM
- MIC [23]: 6.25 µg/mL (≈ 22.2 µM)
- MIC ([24]; 24 h, read-out: MIC CP 24h): > 500 µM
- MIC ([24]; 48 h, read-out: MIC CP 48h): > 500 µM
- MIC ([25]; 24 h, read-out: MIC SE 24h): > 500 µM
- MIC ([25]; 48 h, read-out: MIC SE 48h): > 500 µM

SMILES: O=C(Cc1ccc(Cl)cc1)Nc1cccc(Cl)n1 [Compound 21]
- MIC [1]: 31.2 µg/mL (≈ 111 µM)
- MIC ([2]; 24 h, read-out: MIC EF 24h): > 500 µM
- MIC ([2]; 48 h, read-out: MIC EF 48h): > 500 µM
- IC50 [3]: 81.5 µM
- Antifungal activity on TI ([4]; Table 2): 62.5 μM on TI
- MIC ([4]; 72 h, read-out: MIC TI 72h): 62.5 µM (≈ 17.6 µg/mL)
- MIC ([4]; 120 h, read-out: MIC TI 120h): 125 µM (≈ 35.1 µg/mL)
- MIC ([5]; 24 h, read-out: MIC CK 24h): > 500 µM
- MIC ([5]; 48 h, read-out: MIC CK 48h): > 500 µM
- MIC ([6]; 24 h, read-out: MIC EC 24h): > 500 µM
- MIC ([6]; 48 h, read-out: MIC EC 48h): > 500 µM
- MIC ([7]; 24 h, read-out: MIC SA 24h): 250 µM (≈ 70.3 µg/mL)
- MIC ([7]; 48 h, read-out: MIC SA 48h): > 500 µM
- Antibacterial activity on SA ([7]; Table 2): 250 μM on SA, 250 μM on MRSA
- MIC ([8]; 24 h, read-out: MIC CA 24h): > 500 µM
- MIC ([8]; 48 h, read-out: MIC CA 48h): > 500 µM
- MIC ([9]; 24 h, read-out: MIC PA 24h): > 500 µM
- MIC ([9]; 48 h, read-out: MIC PA 48h): > 500 µM
- MIC KP 24h [10]: > 500 µM
- MIC KP 48h [10]: > 500 µM
- MIC M. kansasii [11]: additional activity
- MIC [11]: 25 µg/mL (≈ 88.9 µM)
- MIC [12, 26]: > 500 µM
- MIC [12, 27]: > 500 µM
- MIC ([13]; 24 h, read-out: MIC CT 24h): > 500 µM
- MIC ([13]; 48 h, read-out: MIC CT 48h): > 500 µM
- MIC ([15]; 24 h, read-out: MIC MRSA 24h): 250 µM (≈ 70.3 µg/mL)
- MIC ([15]; 48 h, read-out: MIC MRSA 48h): 500 µM (≈ 141 µg/mL)
- Antibacterial activity on MRSA ([15]; Table 2): 250 μM on SA, 250 μM on MRSA
- MIC M. avium [16]: additional activity
- MIC [16]: 6.25 µg/mL (≈ 22.2 µM)
- MIC [18]: 15.6 µg/mL (≈ 55.6 µM)
- MIC [19, 28]: > 500 µM
- MIC [19, 29]: > 500 µM
- MIC ([20]; Calculated from MIC (μg/mL)): 27.8 µM
- MIC [20]: 7.81 µg/mL
- SI (selectivity index) [20]: 2.9
- MIC ([21]; 24 h, read-out: MIC ACI 24h): > 500 µM
- MIC ([21]; 48 h, read-out: MIC ACI 48h): > 500 µM
- MIC [22, 30]: > 500 µM
- MIC [22, 31]: > 500 µM
- MIC [23]: 6.25 µg/mL (≈ 22.2 µM)
- MIC ([24]; 24 h, read-out: MIC CP 24h): > 500 µM
- MIC ([24]; 48 h, read-out: MIC CP 48h): > 500 µM
- MIC ([25]; 24 h, read-out: MIC SE 24h): > 500 µM
- MIC ([25]; 48 h, read-out: MIC SE 48h): > 500 µM
